From PubChem BioAssay AID330 (DTP/NCI, 2004)
Where “and” joins values, the source holds several entries; their conditions need not be identical. Equal entries are not always repeated. Inconclusive results and toxic doses are left out.

Tested on: P388 leukemia ip, CD2F1 mice, survival T/C
Assay: NCI In Vivo Anticancer Drug Screen. Data for tumor model P388 Leukemia (intraperitoneal) in CD2F1 (CDF1) mice
Details: endpoint: median survival time, higher = longer survival
Summary of the method: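 Mice carrying the transplanted tumor received test compound or vehicle. Survival was recorded in each group, and the value is the treated-group measurement divided by that of the vehicle-treated control group.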

[1] = dose: 50.0 mg/kg/injection, schedule: Q01DX005 (ip), vehicle: Klucel (hydroxypropylcellulose) (HPC)
[2] = dose: 100.0 mg/kg/injection, schedule: Q01DX005 (ip), vehicle: Klucel (hydroxypropylcellulose) (HPC)
[3] = dose: 200.0 mg/kg/injection, schedule: Q01DX005 (ip), vehicle: Klucel (hydroxypropylcellulose) (HPC)
[4] = dose: 12.5 mg/kg/injection, schedule: Q01DX005 (ip), vehicle: saline
[5] = dose: 25.0 mg/kg/injection, schedule: Q01DX005 (ip), vehicle: saline
[6] = dose: 50.0 mg/kg/injection, schedule: Q01DX005 (ip), vehicle: saline
[7] = dose: 50.0 mg/kg/injection, schedule: Q01DX005 (ip), vehicle: saline with Tween-80
[8] = dose: 100.0 mg/kg/injection, schedule: Q01DX005 (ip), vehicle: saline with Tween-80
[9] = dose: 200.0 mg/kg/injection, schedule: Q01DX005 (ip), vehicle: saline with Tween-80

## CC1=CC=C(C(=O)C(Br)C(Br)c2ccccc2)C1 (stereo not drawn)
dose: 6.25 mg/kg/injection, schedule: Q01DX009 (ip), vehicle: Klucel (hydroxypropylcellulose) (HPC)
  T/C: 92 % of control
dose: 12.5 mg/kg/injection, schedule: Q01DX009 (ip), vehicle: Klucel (hydroxypropylcellulose) (HPC)
  T/C: 92 % of control
dose: 25.0 mg/kg/injection, schedule: Q01DX009 (ip), vehicle: Klucel (hydroxypropylcellulose) (HPC)
  T/C: 89 % of control

## C/C1=C/C(C)C(O)C(O)C(=O)C2(C)CNC3=C(O2)C(=O)c2c(cc(C)c(O)c2C1=O)C3=O (stereo not drawn)
dose: 0.5 mg/kg/injection, schedule: Q01DX009 (ip), vehicle: distilled water + Tween-80
  T/C: 102 % of control and 122 % of control
dose: 1.0 mg/kg/injection, schedule: Q01DX009 (ip), vehicle: distilled water + Tween-80
  T/C: 106 % of control and 117 % of control
dose: 2.0 mg/kg/injection, schedule: Q01DX009 (ip), vehicle: distilled water + Tween-80
  T/C: 108 % of control
dose: 4.0 mg/kg/injection, schedule: Q01DX009 (ip), vehicle: distilled water + Tween-80
  T/C: 102 % of control and 103 % of control
dose: 16.0 mg/kg/injection, schedule: Q01DX009 (ip), vehicle: distilled water + Tween-80
  T/C: 103 % of control and 107 % of control
dose: 32.0 mg/kg/injection, schedule: Q01DX009 (ip), vehicle: distilled water + Tween-80
  T/C: 101 % of control and 103 % of control
dose: 4.0 micrograms/kg/injection, schedule: Q01DX009 (ip), vehicle: water
  T/C: 115 % of control
dose: 8.0 micrograms/kg/injection, schedule: Q01DX009 (ip), vehicle: water
  T/C: 99 % of control
dose: 16.0 micrograms/kg/injection, schedule: Q01DX009 (ip), vehicle: water
  T/C: 98 % of control
dose: 32.0 micrograms/kg/injection, schedule: Q01DX009 (ip), vehicle: water
  T/C: 99 % of control
dose: 64.0 micrograms/kg/injection, schedule: Q01DX009 (ip), vehicle: saline + alcohol
  T/C: 100 % of control
dose: 64.0 micrograms/kg/injection, schedule: Q01DX009 (ip), vehicle: water
  T/C: 102 % of control
dose: 128.0 micrograms/kg/injection, schedule: Q01DX009 (ip), vehicle: saline + alcohol
  T/C: 100 % of control
dose: 256.0 micrograms/kg/injection, schedule: Q01DX009 (ip), vehicle: saline + alcohol
  T/C: 103 % of control

## O=C(N/N=C(/C(=N/NC(=O)c1ccccc1)c1ccccc1)c1ccccc1)c1ccccc1
dose: 100.0 mg/kg/injection, schedule: Q01DX009 (ip), vehicle: saline with Tween-80
  T/C: 100 % of control
dose: 200.0 mg/kg/injection, schedule: Q01DX009 (ip), vehicle: saline with Tween-80
  T/C: 95 % of control
dose: 400.0 mg/kg/injection, schedule: Q01DX009 (ip), vehicle: saline with Tween-80
  T/C: 90 % of control

## COc1cccc2c1C(=O)c1c(O)c3c(c(O)c1C2=O)C[C@@](O)(C(=O)CO)C[C@@H]3OC1CC(N2CCOCC2)C(O)C(C)O1 (stereo partly drawn)
dose: 5.0 micrograms/kg/injection, schedule: Q04DX003 (ip), vehicle: water
  T/C: 102 % of control
dose: 10.0 micrograms/kg/injection, schedule: Q04DX003 (ip), vehicle: water
  T/C: 107 % of control
dose: 20.0 micrograms/kg/injection, schedule: Q04DX003 (ip), vehicle: water
  T/C: 106 % of control
dose: 22.0 micrograms/kg/injection, schedule: Q04DX003 (iv), vehicle: saline + alcohol
  T/C: 153 % of control
dose: 31.25 micrograms/kg/injection, schedule: Q04DX003 (ip), vehicle: water
  T/C: 106 % of control
dose: 33.0 micrograms/kg/injection, schedule: Q04DX003 (iv), vehicle: saline + alcohol
  T/C: 180 % of control
dose: 40.0 micrograms/kg/injection, schedule: Q04DX003 (ip), vehicle: water
  T/C: 104 % of control
dose: 50.0 micrograms/kg/injection, schedule: Q04DX003 (iv), vehicle: saline + alcohol
  T/C: 173 % of control
dose: 62.5 micrograms/kg/injection, schedule: Q04DX003 (ip), vehicle: water
  T/C: 100 % of control
dose: 75.0 micrograms/kg/injection, schedule: Q04DX003 (iv), vehicle: saline + alcohol
  T/C: 113 % of control
dose: 125.0 micrograms/kg/injection, schedule: Q04DX003 (ip), vehicle: water
  T/C: 111 % of control
dose: 250.0 micrograms/kg/injection, schedule: Q04DX003 (ip), vehicle: water
  T/C: 110 % of control
dose: 500.0 micrograms/kg/injection, schedule: Q04DX003 (ip), vehicle: water
  T/C: 99 % of control

## CC(=O)OC(=O)C(NC(=O)C(N)CC(C)C)C(C)C (stereo not drawn)
dose: 50.0 mg/kg/injection, schedule: Q01DX009 (ip), vehicle: saline
  T/C: 103 % of control
dose: 100.0 mg/kg/injection, schedule: Q01DX009 (ip), vehicle: saline
  T/C: 94 % of control
dose: 200.0 mg/kg/injection, schedule: Q01DX009 (ip), vehicle: saline
  T/C: 100 % of control

## COc1nc2ccccc2c2ccnn12
dose: 4.0 mg/kg/injection, schedule: Q01DX009 (ip), vehicle: saline with Tween-80
  T/C: 106 % of control
dose: 8.0 mg/kg/injection, schedule: Q01DX009 (ip), vehicle: saline with Tween-80
  T/C: 106 % of control
dose: 16.0 mg/kg/injection, schedule: Q01DX009 (ip), vehicle: saline with Tween-80
  T/C: 109 % of control

## O=C(O)COc1nc(Cl)c(Cl)cc1Cl
dose: 60.0 mg/kg/injection, schedule: Q01DX005 (ip), vehicle: Klucel (hydroxypropylcellulose) (HPC)
  T/C: 101 % of control and 104 % of control
dose: 120.0 mg/kg/injection, schedule: Q01DX005 (ip), vehicle: Klucel (hydroxypropylcellulose) (HPC)
  T/C: 103 % of control
dose: 240.0 mg/kg/injection, schedule: Q01DX005 (ip), vehicle: Klucel (hydroxypropylcellulose) (HPC)
  T/C: 113 % of control and 94 % of control

## COC(=O)CCC1=C(C)c2cc3[n-]c(cc4nc(cc5[n-]c(cc1n2)c(CCC(=O)OC)c5C)C(C(C)=O)=C4C)c(C(C)=O)c3C.[Cl-].[Fe+3]
[1]
  T/C: 104 % of control
[2]
  T/C: 106 % of control
[3]
  T/C: 99 % of control

## NC(=O)C1=Cc2cc(Cl)ccc2OC1
dose: 6.25 mg/kg/injection, schedule: Q01DX009 (ip), vehicle: saline with Tween-80
  T/C: 97 % of control
dose: 12.5 mg/kg/injection, schedule: Q01DX009 (ip), vehicle: saline with Tween-80
  T/C: 102 % of control
dose: 25.0 mg/kg/injection, schedule: Q01DX009 (ip), vehicle: saline with Tween-80
  T/C: 92 % of control
dose: 50.0 mg/kg/injection, schedule: Q01DX009 (ip), vehicle: saline with Tween-80
  T/C: 106 % of control

## c1cc2cc(-c3ccc4cc(-c5ccc6oc(C7=NCCN7)cc6c5)[nH]c4c3)[nH]c2cc1C1=NCCN1
[1]
  T/C: 156 % of control
[2]
  T/C: 114 % of control
[3]
  T/C: 91 % of control

## COc1c(Br)c2c(c(OC)c1OC)-c1ccc(OC)c(=O)cc1C(NC(C)=O)CC2 (stereo not drawn)
dose: 1.56 mg/kg/injection, schedule: Q01DX009 (ip), vehicle: Klucel (hydroxypropylcellulose) (HPC)
  T/C: 165 % of control
dose: 3.12 mg/kg/injection, schedule: Q01DX009 (ip), vehicle: Klucel (hydroxypropylcellulose) (HPC)
  T/C: 101 % of control and 96 % of control

## O=C(O)CCSCCCCCCCCCCSCCC(=O)O
[1]
  T/C: 98 % of control
[2]
  T/C: 93 % of control
[3]
  T/C: 86 % of control

## Cc1ccc(C(C)(C)C)cc1Br
dose: 100.0 mg/kg/injection, schedule: Q01DX001 (ip), vehicle: other
  T/C: 95 % of control
dose: 200.0 mg/kg/injection, schedule: Q01DX001 (ip), vehicle: other
  T/C: 100 % of control
dose: 400.0 mg/kg/injection, schedule: Q01DX001 (ip), vehicle: other
  T/C: 88 % of control

## COc1ccc2c(c1)[C@]1(C)CCN(C)[C@@H]1N2C
[4]
  T/C: 105 % of control
[5]
  T/C: 98 % of control
[6]
  T/C: 105 % of control

## CSc1nc(SC)c2cn(Cc3ccccc3)nc2n1
[7]
  T/C: 105 % of control
[8]
  T/C: 108 % of control
[9]
  T/C: 102 % of control

## COc1cc(NCCCCCNC(C)C)c2ncc(C)c(C)c2c1
[4]
  T/C: 102 % of control
[5]
  T/C: 100 % of control
[6]
  T/C: 100 % of control

## O=C(O)CCC1(CCC(=O)O)OCCO1.[Ag]
dose: 9.5 mg/kg/injection, schedule: Q01DX009 (ip), vehicle: saline sonified
  T/C: 100 % of control
dose: 19.0 mg/kg/injection, schedule: Q01DX009 (ip), vehicle: saline sonified
  T/C: 109 % of control
dose: 38.0 mg/kg/injection, schedule: Q01DX009 (ip), vehicle: saline sonified
  T/C: 86 % of control

## Cc1ccc(S(=O)(=O)c2cnc(N)nc2N)cc1
dose: 100.0 mg/kg/injection, schedule: Q01DX001 (ip), vehicle: saline
  T/C: 98 % of control
dose: 200.0 mg/kg/injection, schedule: Q01DX001 (ip), vehicle: saline
  T/C: 95 % of control
dose: 400.0 mg/kg/injection, schedule: Q01DX001 (ip), vehicle: saline
  T/C: 95 % of control

## CC1(c2ccccc2)COC(=O)O/C1=N/OCc1ccccc1 (stereo not drawn)
[7]
  T/C: 100 % of control
[8]
  T/C: 107 % of control
[9]
  T/C: 99 % of control
